# Results from patent US20060167057A1, “Compounds for the treatment of CNS and amyloid associated diseases” (priority 2004, published 2006).
# Experiments:
# [1] = molecular target: T1, IAPP (Homo sapiens, UniProt P10997); experiment: Electrospray MS assay for binding to IAPP; design: key to MS Results (IAPP binding), Water: 0 = None; conditions: 100 μM compound, 20 μM IAPP; for MS Results (IAPP binding), Water: pH 7.4, aqueous solution; for MS Results (IAPP binding), 20% Ethanol: pH 7.4, 20% ethanol in water
# T1 construct: which is a 37 amino acid peptide, derived from a larger precursor peptide, called pro-IAPP
# T1 sequence (P10997 34-70 limits assumed): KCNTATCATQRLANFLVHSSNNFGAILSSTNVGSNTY
# Description: The ability of a therapeutic compound of the invention to inhibit an interaction between an amyloidogenic protein and a glycoprotein or proteoglycan constituent of a basement membrane can be assessed by an in vitro binding assay, such as that described in U.S. Pat. No. 5,164,295, the contents of which are hereby incorporated by reference. Alternatively, the ability of a compound to bind to an amyloidogenic protein or to inhibit the binding of a basement membrane constituent (e.g. HSPG) to an amyloidogenic protein (e.g. Aβ) can be measured using a mass spectrometry assay where soluble protein, e.g Aβ, IAPP, β2M is incubated with the compound. A compound which binds to, e.g Aβ, will induce a change in the mass spectrum of the protein. Exemplary protocols for a mass spectrometry assay employing Aβ and IAPP can be found in the Examples, the results of which are provided in Table 5. The protocol can readily be modified to adjust the sensitivity of the data, e.g., by adjusting the amount of protein and/or compound employed. Thus, e.g., binding might be detected for test compounds noted as not having detectable binding employing less sensitive test protocols.
# The binding ability between the compounds synthesized in Example 4 and IAPP in an aqueous solution is tested. The binding ability is attributed semi-quantitatively from the intensities of peptide-compound complex peaks observed in the Electrospray Mass Spectrum.
# In the MS assay for IAPP, samples are prepared as both aqueous solutions and as 20% ethanol in water solutions, including 100 μM of an exemplary compound as prepared in. Example 4 and 20 μM of solubilized IAPP. The stock solution contains 30 μM IAPP and the initial pH is 3.8. Generally, IAPP precipitates out of solution at concentrations higher than 50 μM and pH higher than ˜6 as soon as a test compound is mixed with the peptide. The pH value of each sample, therefore, is adjusted to 7.4 ([…]) by addition of 0.1% aqueous sodium hydroxide. The solutions aer then analyzed by electrospray ionization mass spectrometry using a Waters ZQ 4000 mass spectrometer. Samples are introduced by direct infusion at a flow-rate of 25 μL/min within 2 hr. after sample preparation. The source temperature is kept at 70° C. and the cone voltage is 20 V for all the analysis. Data are processed using Masslynx 3.5 software. IAPP (MW 3903.4) alone at 20 μM is analyzed at pH 7.32 as a control. Sodium clusters, which are typical of this system at +3 and +4 at m/z 1301.9 and 976.7 regions, may be observed. In Table 8, a blank box means that a value was not determined for that compound in that assay.
# [2] = molecular target: T2, L1 transport system (large neutral amino acid carrier, L1-system carrier) (Rattus norvegicus, UniProt Q63016); experiment: Competitive binding assay to the brain L1 transport system (L-[U-14C]phenylalanine on rat primary cerebrovascular endothelial cells); conditions: for Status of Binding: compounds of Example 4, 10^−6, 10^−5 and 10^−4, Δ versus phenylalanine
# T2 construct: functionality of their endogenous transporters such as the L1-system carrier; endogenous in cells; host or cells: rat primary cerebrovascular (brain microcapillary) endothelial cells, RBEC
# Method in brief: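 Cells were primary cerebral microvascular endothelial cells from cortices of 24-day-old rats, isolated by collagenase/DNAse digestion, dextran separation and mesh filtration.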
# T2 sequence (Q63016 whole entry): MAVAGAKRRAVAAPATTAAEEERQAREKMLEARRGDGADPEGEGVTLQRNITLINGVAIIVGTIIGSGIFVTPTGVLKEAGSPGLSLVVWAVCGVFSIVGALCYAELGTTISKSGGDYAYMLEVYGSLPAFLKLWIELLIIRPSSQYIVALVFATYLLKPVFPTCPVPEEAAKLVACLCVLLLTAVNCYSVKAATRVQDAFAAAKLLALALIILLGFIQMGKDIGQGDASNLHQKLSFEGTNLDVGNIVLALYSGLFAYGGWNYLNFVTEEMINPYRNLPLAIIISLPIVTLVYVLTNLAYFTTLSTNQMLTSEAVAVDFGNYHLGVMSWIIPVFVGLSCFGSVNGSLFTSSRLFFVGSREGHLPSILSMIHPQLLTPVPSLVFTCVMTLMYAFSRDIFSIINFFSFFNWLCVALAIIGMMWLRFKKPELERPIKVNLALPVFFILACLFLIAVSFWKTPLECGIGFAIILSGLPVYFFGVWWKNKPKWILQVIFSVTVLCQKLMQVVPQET
# T2 sequence (Q794F9 whole entry partner): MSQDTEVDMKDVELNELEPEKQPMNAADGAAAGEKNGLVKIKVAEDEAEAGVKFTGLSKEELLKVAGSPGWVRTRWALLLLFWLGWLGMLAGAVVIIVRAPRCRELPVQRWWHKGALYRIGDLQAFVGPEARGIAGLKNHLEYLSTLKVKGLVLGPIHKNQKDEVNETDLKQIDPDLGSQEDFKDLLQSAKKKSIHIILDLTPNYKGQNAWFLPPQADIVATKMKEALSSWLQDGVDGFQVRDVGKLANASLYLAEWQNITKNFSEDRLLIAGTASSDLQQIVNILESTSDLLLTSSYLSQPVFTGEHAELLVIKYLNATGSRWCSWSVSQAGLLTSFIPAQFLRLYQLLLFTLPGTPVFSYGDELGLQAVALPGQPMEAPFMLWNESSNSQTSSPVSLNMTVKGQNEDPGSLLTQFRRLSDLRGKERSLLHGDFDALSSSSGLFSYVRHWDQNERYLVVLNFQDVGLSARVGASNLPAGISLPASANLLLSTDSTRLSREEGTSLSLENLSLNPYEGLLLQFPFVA
structure (smiles),measurement,setting,value
N[C@@H](Cc1cccc(CSc2ncc[nH]2)c1)C(=O)O,"MS Results (IAPP binding), Water",[1],0
NC(Cc1ccc(-c2ccc(CSc3nc(-c4ccccc4)c(-c4ccccc4)[nH]3)cc2)cc1)C(=O)O (stereo not drawn) [Compound 149],Comparison with the Binding of Phenylalanine,[2]; 10^−4 M,3 (X > 20 Rank 3)
same,Comparison with the Binding of Phenylalanine,[2]; 10^−5 M,3 (X > 20 Rank 3)
same,Comparison with the Binding of Phenylalanine,[2]; 10^−6 M,2 (10 < X < 20 Rank 2)
Cc1ccnc(SCc2ccc(-c3ccc(CC(N)C(=O)O)cc3)cc2)n1 (stereo not drawn) [Compound 151],Comparison with the Binding of Phenylalanine,[2]; 10^−4 M,0 (X < 0 Rank 0)
same,Comparison with the Binding of Phenylalanine,[2]; 10^−5 M,0 (X < 0 Rank 0)
same,Comparison with the Binding of Phenylalanine,[2]; 10^−6 M,2 (10 < X < 20 Rank 2)
NC(Cc1ccc(-c2ccc(CSc3nnnn3CC(=O)O)cc2)cc1)C(=O)O (stereo not drawn) [Compound 153],Comparison with the Binding of Phenylalanine,[2]; 10^−4 M,0 (X < 0 Rank 0)
same,Comparison with the Binding of Phenylalanine,[2]; 10^−5 M,0 (X < 0 Rank 0)
same,Comparison with the Binding of Phenylalanine,[2]; 10^−6 M,2 (10 < X < 20 Rank 2)
NC(Cc1cccc(CSc2ncccn2)n1)C(=O)O (stereo not drawn) [Compound 154],Comparison with the Binding of Phenylalanine,[2]; 10^−4 M,1 (0 < X < 10 Rank 1)
same,Comparison with the Binding of Phenylalanine,[2]; 10^−5 M,0 (X < 0 Rank 0)
same,Comparison with the Binding of Phenylalanine,[2]; 10^−6 M,0 (X < 0 Rank 0)
NC(Cc1ccc(-c2ccc(CSc3nc4ccccc4c(=O)[nH]3)cc2)cc1)C(=O)O (stereo not drawn) [Compound 155],Comparison with the Binding of Phenylalanine,[2]; 10^−4 M,0 (X < 0 Rank 0)
same,Comparison with the Binding of Phenylalanine,[2]; 10^−5 M,0 (X < 0 Rank 0)
same,Comparison with the Binding of Phenylalanine,[2]; 10^−6 M,2 (10 < X < 20 Rank 2)
Cn1cnnc1SCc1cccc(CC(N)C(=O)O)n1 (stereo not drawn) [Compound 156],Comparison with the Binding of Phenylalanine,[2]; 10^−4 M,1 (0 < X < 10 Rank 1)
same,Comparison with the Binding of Phenylalanine,[2]; 10^−5 M,1 (0 < X < 10 Rank 1)
same,Comparison with the Binding of Phenylalanine,[2]; 10^−6 M,2 (10 < X < 20 Rank 2)
NC(Cc1cccc(CN2CCN(c3ncccn3)CC2)n1)C(=O)O (stereo not drawn) [Compound 158],Comparison with the Binding of Phenylalanine,[2]; 10^−4 M,0 (X < 0 Rank 0)
same,Comparison with the Binding of Phenylalanine,[2]; 10^−5 M,0 (X < 0 Rank 0)
same,Comparison with the Binding of Phenylalanine,[2]; 10^−6 M,1 (0 < X < 10 Rank 1)
NC(Cc1ccc(-c2ccc(CSc3ccc4ccccc4n3)cc2)cc1)C(=O)O (stereo not drawn) [Compound 159],Comparison with the Binding of Phenylalanine,[2]; 10^−4 M,0 (X < 0 Rank 0)
same,Comparison with the Binding of Phenylalanine,[2]; 10^−5 M,0 (X < 0 Rank 0)
same,Comparison with the Binding of Phenylalanine,[2]; 10^−6 M,1 (0 < X < 10 Rank 1)
NC(Cc1cccc(CN2CC=CCC2)n1)C(=O)O (stereo not drawn) [Compound 160],Comparison with the Binding of Phenylalanine,[2]; 10^−4 M,0 (X < 0 Rank 0)
same,Comparison with the Binding of Phenylalanine,[2]; 10^−5 M,0 (X < 0 Rank 0)
same,Comparison with the Binding of Phenylalanine,[2]; 10^−6 M,1 (0 < X < 10 Rank 1)
COc1ccc(-n2nnnc2SCc2cccc(C[C@H](N)C(=O)O)c2)cc1 [drawing 467],Status of Binding,[2],"3 (3: Δ > 10%, significantly higher binding affinity than phenylalanine)"
N[C@@H](Cc1cccc(CSc2nnnn2-c2ccccc2)c1)C(=O)O [drawing 468],Status of Binding,[2],"3 (3: Δ > 10%, significantly higher binding affinity than phenylalanine)"
N[C@@H](Cc1cccc(CSc2nc3ccccc3[nH]2)c1)C(=O)O [drawing 469],Status of Binding,[2],"1 (1: −10 > Δ > −50%, lower binding affinity than phenylalanine)"
N[C@@H](Cc1cccc(CSc2nnc(-c3ccccc3)[nH]2)c1)C(=O)O [drawing 470],Status of Binding,[2],2 (2: 10% ≧ Δ ≧ −10% similar binding affinity to phenylalanine)
N[C@@H](Cc1cccc(CSc2nc3ccccc3[nH]2)n1)C(=O)O [drawing 471],Status of Binding,[2],"1 (1: −10 > Δ > −50%, lower binding affinity than phenylalanine)"
N[C@@H](Cc1cccc(CSc2ncnc3[nH]ncc23)n1)C(=O)O [drawing 472],Status of Binding,[2],"0 (0: Δ ≦ −50%, no binding or very low binding affinity)"
N[C@@H](Cc1cccc(CS(=O)(=O)c2nc3ccccc3[nH]2)n1)C(=O)O [drawing 473],Status of Binding,[2],"0 (0: Δ ≦ −50%, no binding or very low binding affinity)"
N[C@@H](Cc1cccc(CSc2nccc(O)n2)c1)C(=O)O [drawing 474],Status of Binding,[2],"1 (1: −10 > Δ > −50%, lower binding affinity than phenylalanine)"
N[C@@H](Cc1cccc(C[S+]([O-])c2nnnn2-c2ccccc2)c1)C(=O)O (stereo partly drawn) [drawing 475],Status of Binding,[2],"3 (3: Δ > 10%, significantly higher binding affinity than phenylalanine)"
N[C@@H](Cc1cccc(CSc2nccc(C(F)(F)F)n2)n1)C(=O)O [drawing 476],Status of Binding,[2],"1 (1: −10 > Δ > −50%, lower binding affinity than phenylalanine)"
N[C@@H](Cc1cccc(CSc2nc3ccc(Cl)cc3s2)n1)C(=O)O [drawing 477],Status of Binding,[2],"1 (1: −10 > Δ > −50%, lower binding affinity than phenylalanine)"
N[C@@H](Cc1cccc(CS(=O)(=O)c2nc3ccccc3[nH]2)c1)C(=O)O [drawing 478],Status of Binding,[2],2 (2: 10% ≧ Δ ≧ −10% similar binding affinity to phenylalanine)
N[C@@H](Cc1cccc(C[S+]([O-])c2nnnn2-c2ccccc2)n1)C(=O)O (stereo partly drawn) [drawing 479],Status of Binding,[2],"1 (1: −10 > Δ > −50%, lower binding affinity than phenylalanine)"
N[C@@H](Cc1cccc(CSc2nnnn2-c2ccc(O)cc2)c1)C(=O)O [drawing 480],Status of Binding,[2],"3 (3: Δ > 10%, significantly higher binding affinity than phenylalanine)"
COc1ccc(-n2nnnc2[S+]([O-])Cc2cccc(C[C@H](N)C(=O)O)c2)cc1 (stereo partly drawn) [drawing 481],Status of Binding,[2],"3 (3: Δ > 10%, significantly higher binding affinity than phenylalanine)"
N[C@@H](Cc1cccc(C[S+]([O-])c2nnc(-c3ccccc3)[nH]2)c1)C(=O)O (stereo partly drawn) [drawing 482],Status of Binding,[2],"1 (1: −10 > Δ > −50%, lower binding affinity than phenylalanine)"
N[C@@H](Cc1cccc(CS(=O)(=O)c2ncc[nH]2)c1)C(=O)O [drawing 483],Status of Binding,[2],"1 (1: −10 > Δ > −50%, lower binding affinity than phenylalanine)"
N[C@@H](Cc1cccc(CSc2nnc(-c3ccncc3)o2)c1)C(=O)O [drawing 484],Status of Binding,[2],2 (2: 10% ≧ Δ ≧ −10% similar binding affinity to phenylalanine)
CN(C)CCn1nnnc1SCc1cccc(C[C@H](N)C(=O)O)c1 [drawing 485],Status of Binding,[2],"1 (1: −10 > Δ > −50%, lower binding affinity than phenylalanine)"
N[C@@H](Cc1cccc(CSc2nnc(-c3ccncc3)[nH]2)c1)C(=O)O [drawing 486],Status of Binding,[2],2 (2: 10% ≧ Δ ≧ −10% similar binding affinity to phenylalanine)
COc1ccc(-n2nnnc2SCc2cccc(C[C@H](N)C(=O)O)c2)cc1 [drawing 508],"MS Results (IAPP binding), 20% Ethanol",[1],+++ (+++ = Strong (50 and higher % of free peptide))
N[C@@H](Cc1cccc(CSc2nnnn2-c2ccccc2)c1)C(=O)O [drawing 509],"MS Results (IAPP binding), 20% Ethanol",[1],++ (++ = Moderate (30-50% of free peptide))
same,"MS Results (IAPP binding), Water",[1],+ (+ = Weak (15-30% of free peptide))
N[C@@H](Cc1cccc(CSc2nc3ccccc3[nH]2)c1)C(=O)O [drawing 510],"MS Results (IAPP binding), 20% Ethanol",[1],+ (+ = Weak (15-30% of free peptide))
same,"MS Results (IAPP binding), Water",[1],0
N[C@@H](Cc1cccc(CSc2nnc(-c3ccccc3)[nH]2)c1)C(=O)O [drawing 511],"MS Results (IAPP binding), Water",[1],+ (+ = Weak (15-30% of free peptide))
N[C@@H](Cc1cccc(CSc2nc3ccccc3[nH]2)n1)C(=O)O [drawing 512],"MS Results (IAPP binding), Water",[1],0
N[C@@H](Cc1cccc(CSc2ncnc3[nH]ncc23)n1)C(=O)O [drawing 513],"MS Results (IAPP binding), Water",[1],0
N[C@@H](Cc1cccc(CS(=O)(=O)c2nc3ccccc3[nH]2)n1)C(=O)O [drawing 514],"MS Results (IAPP binding), Water",[1],0
